Test results reported in patent US12441707B2, “Indazole compounds” (TYRA BIOSCIENCES, INC., priority 2019, dated 2025).
Read-outs that look alike come from different tables or passages of the source.

What was measured:
[1] = system: KG-1 cells (Acute Myeloid Leukemia, FGFR1OP2-FGFR1 fusion); experiment: KG-1 cancer cell line cell viability assay (CellTiter-Glo 2.0); format: cell-based; conditions: Homo sapiens, 72 hours
Excerpt: (§1) Experimental Purpose: To detect the change of intracellular ATP by Cell Titer-Glo® and to evaluate the inhibitory effect of the compounds on cancer cell lines by determining the in vitro IC50 value of the compounds.
(§2) RT112/84 and KG-1 cell lines were purchased from American Type Culture Collection (Manassas, VA). UM-UC-14 cell line was purchased from Sigma (St. Louis, MO).

[2] = system: RT112/84 cells (Bladder Cancer, FGFR3-TACC3 fusion); experiment: RT112/84 cell viability assay (CellTiter-Glo 2.0); format: cell-based; conditions: Homo sapiens, 72 hours
Excerpt: Example B. RT112/84 Cell Viability Assay
RT112/84 cell line was purchased from American Type Culture Collection (Manassas, VA).
as §1, §2

[3] = system: UM-UC-14 cells (Bladder Cancer, FGFR3(S249C)); experiment: UM-UC-14 cancer cell line cell viability assay (CellTiter-Glo 2.0); format: cell-based; conditions: UMUC14, 72 hours
Excerpt: as §1, §2

FGFR2 [4] = biological target: T1, FGFR2 (Homo sapiens (Human), UniProt P21802); experiment: biochemical
T1 sequence (P21802 22-821): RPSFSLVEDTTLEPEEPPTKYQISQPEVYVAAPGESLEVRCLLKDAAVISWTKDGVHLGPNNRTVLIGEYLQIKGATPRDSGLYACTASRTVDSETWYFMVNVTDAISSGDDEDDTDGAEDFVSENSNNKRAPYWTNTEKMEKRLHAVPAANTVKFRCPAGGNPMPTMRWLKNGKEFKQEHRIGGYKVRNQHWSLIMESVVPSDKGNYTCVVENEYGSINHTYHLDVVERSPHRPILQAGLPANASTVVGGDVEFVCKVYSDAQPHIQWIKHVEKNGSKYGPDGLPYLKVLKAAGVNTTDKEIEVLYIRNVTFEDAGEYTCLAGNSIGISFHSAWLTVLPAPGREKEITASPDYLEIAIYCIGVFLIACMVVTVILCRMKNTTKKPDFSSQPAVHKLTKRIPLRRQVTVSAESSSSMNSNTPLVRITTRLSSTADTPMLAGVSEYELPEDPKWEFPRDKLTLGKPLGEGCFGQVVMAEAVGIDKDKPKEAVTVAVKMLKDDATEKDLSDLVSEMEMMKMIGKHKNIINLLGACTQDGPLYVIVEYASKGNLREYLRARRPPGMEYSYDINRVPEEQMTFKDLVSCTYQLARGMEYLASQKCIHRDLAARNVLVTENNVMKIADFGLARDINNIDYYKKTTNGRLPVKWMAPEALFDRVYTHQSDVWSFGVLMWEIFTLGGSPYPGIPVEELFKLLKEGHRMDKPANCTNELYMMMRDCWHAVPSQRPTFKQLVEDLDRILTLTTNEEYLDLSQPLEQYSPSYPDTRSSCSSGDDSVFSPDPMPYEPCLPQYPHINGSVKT
Protocol: (§3) Kinase-tagged T7 phage strains were prepared in an E. coli host derived from the BL21 strain. E. coli were grown to log-phase and infected with T7 phage and incubated with shaking at 32° C. until lysis. The lysates were centrifuged and filtered to remove cell debris. […] The liganded beads were blocked with excess biotin and washed with blocking buffer SeaBlock (Pierce), 1% BSA, 0.05% Tween 20, 1 mM DTT to remove unbound ligand and to reduce non-specific binding.
(§4) Test compounds were prepared as 111× stocks in 100% DMSO. Kds were determined using an 11-point 3-fold compound dilution series with three DMSO control points. […] The compounds were then diluted directly into the assays such that the final concentration of DMSO was 0.9%. All reactions performed in polypropylene 384-well plate. Each was a final volume of 0.02 ml. […] The kinase concentration in the eluates was measured by qPCR.
(§5) Binding constants were calculated with a standard dose-response curve using the Hill equation:
(§6) The Hill Slope was set to −1. Curves were fitted using a non-linear least square fit with the Levenberg-Marquardt algorithm.

FGFR3 = FGFR3 (Homo sapiens (Human), UniProt P22607); experiment: Kinase binding assay (kinase-tagged T7 phage, liganded affinity beads, qPCR); conditions: binding constant; 0.9% DMSO
Sequence of FGFR3 (P22607 23-806): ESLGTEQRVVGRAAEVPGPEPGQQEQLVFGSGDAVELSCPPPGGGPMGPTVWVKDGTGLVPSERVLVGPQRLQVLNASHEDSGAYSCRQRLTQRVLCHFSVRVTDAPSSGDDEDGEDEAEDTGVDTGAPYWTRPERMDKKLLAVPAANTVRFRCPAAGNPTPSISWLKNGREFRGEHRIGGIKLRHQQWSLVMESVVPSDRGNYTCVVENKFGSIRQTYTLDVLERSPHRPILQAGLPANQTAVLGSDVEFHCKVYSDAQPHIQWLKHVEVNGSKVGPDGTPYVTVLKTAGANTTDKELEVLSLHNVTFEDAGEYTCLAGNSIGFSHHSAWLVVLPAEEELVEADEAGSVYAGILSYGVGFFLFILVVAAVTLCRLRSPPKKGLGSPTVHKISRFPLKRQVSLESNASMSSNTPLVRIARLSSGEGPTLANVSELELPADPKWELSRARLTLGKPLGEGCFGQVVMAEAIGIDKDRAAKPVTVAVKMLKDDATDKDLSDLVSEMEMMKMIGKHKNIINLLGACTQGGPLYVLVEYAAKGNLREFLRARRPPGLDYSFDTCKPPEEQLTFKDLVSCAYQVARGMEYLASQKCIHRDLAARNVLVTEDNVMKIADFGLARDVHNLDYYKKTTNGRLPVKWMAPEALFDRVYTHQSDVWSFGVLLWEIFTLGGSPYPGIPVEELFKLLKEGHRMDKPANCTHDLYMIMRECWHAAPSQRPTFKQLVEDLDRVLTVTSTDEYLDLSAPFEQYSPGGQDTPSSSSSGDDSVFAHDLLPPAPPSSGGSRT
Protocol: as §3, §4, §5, §6

FGFR1 = FGFR1 (Homo sapiens (Human), UniProt P11362); experiment: as above; conditions: binding constant; 0.9% DMSO
Sequence of FGFR1 (P11362 22-822): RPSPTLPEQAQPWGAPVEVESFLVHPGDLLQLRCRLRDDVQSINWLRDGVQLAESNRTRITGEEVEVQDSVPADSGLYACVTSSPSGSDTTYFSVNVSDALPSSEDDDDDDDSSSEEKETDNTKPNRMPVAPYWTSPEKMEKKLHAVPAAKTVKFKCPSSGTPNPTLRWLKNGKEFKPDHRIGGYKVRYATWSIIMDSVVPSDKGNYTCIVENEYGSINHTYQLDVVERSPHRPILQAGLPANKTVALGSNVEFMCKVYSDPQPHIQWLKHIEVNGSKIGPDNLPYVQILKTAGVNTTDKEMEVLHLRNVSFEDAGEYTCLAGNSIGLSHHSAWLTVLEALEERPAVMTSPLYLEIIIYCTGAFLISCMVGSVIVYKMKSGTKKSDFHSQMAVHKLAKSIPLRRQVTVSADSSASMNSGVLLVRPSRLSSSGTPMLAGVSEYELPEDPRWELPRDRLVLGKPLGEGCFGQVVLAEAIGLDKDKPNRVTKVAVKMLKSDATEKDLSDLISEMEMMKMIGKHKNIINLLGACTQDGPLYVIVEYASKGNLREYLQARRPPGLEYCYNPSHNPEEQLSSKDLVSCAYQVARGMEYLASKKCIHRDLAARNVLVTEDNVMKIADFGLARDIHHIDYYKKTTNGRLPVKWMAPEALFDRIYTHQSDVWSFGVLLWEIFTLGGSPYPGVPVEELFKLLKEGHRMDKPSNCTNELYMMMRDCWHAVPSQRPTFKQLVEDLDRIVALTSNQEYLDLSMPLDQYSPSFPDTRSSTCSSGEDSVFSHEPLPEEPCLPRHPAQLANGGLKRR
Protocol: as §3, §4, §5, §6

FGFR2 [5] = biological target: T1, FGFR2
Protocol: as §3, §4, §5, §6

[6] = biological target: FGFR3-BAIAP2L1 Ba/F3 cells
Sequence of FGFR3-BAIAP2L1 Ba/F3 cells (P22607 23-806 limits assumed, change not shown): as the sequence (P22607 23-806) above
Protocol: Ba/F3 Cell Viability Assays Experimental Purpose: Recombinant kinase fusions are transduced into parental Ba/F3, which becomes dependent upon this constitutive kinase activity for IL3-independent survival. Inhibition of kinase activity leads to cell death, which is monitored using CellTiter-Glo® 2.0 (Promega) which measures intracellular ATP concentration that in turn serves as a marker for viability. […] Cultures were maintained at 37° C. in a humidified atmosphere of 5% CO2 and 95% air. Cells were plated in 96-well clear bottom/white plates (Corning #3903) at 10,000 cells/well in 100 μl of media, incubated overnight. The next day, test compound DMSO stock solutions were made at 10 mM and 2 μM final concentration. Compounds were then added to cells in a 9-dose, 10-fold dilution series starting at 30 μM with an HP 300e Digital Dispenser (each dose was applied in triplicate). DMSO was backfilled to each well up to 301 nL total volume of test compound+DMSO, and a total of 301 nL DMSO was added to a control/no test compound well in triplicate. […] Luminescence was recorded by a Synergy H1 Microplate Reader (Biotek, Winooski, VT). Cells were assessed as a percentage of DMSO only treated control cells. Curves were plotted and IC50 values were calculated using the GraphPad Prism 8 program based on a sigmoidal dose-response equation (4 parameter).

Structure (SMILES): C[C@@H](Oc1ccc2[nH]nc(-c3cnc(N=S(C)(C)=O)c(F)c3)c2c1)c1c(Cl)cncc1Cl [Example 25, [5-[5-[(1R)-1-(3,5-dichloro-4-pyridyl)ethoxy]-1H-indazol-3-yl]-3-fluoro-2-pyridyl]imino-dimethyl-oxo-λ^6-sulfane]
- IC50 [1]: 81 nM
- IC50 [2]: 14 nM
- IC50 [3]: 19 nM

Structure (SMILES): CC(Oc1ccc2[nH]nc(-c3cccc(N=S(C)(C)=O)c3)c2c1)c1c(Cl)cncc1Cl (stereo not shown) [Example 1, [3-[5-[1-(3,5-dichloro-4-pyridyl)ethoxy]-1H-indazol-3-yl]phenyl]imino-dimethyl-oxo-λ^6-sulfane]
- Kd (FGFR2 [4]): 550 nM
- Kd (FGFR3): 76 nM
- Kd (FGFR1): 770 nM

Structure (SMILES): CN=S1(=O)CCN(c2ccc(-c3n[nH]c4ccc(O[C@H](C)c5c(Cl)cncc5Cl)cc34)cn2)CC1 [Example 24, 4-[5-[5-[(1R)-1-(3,5-dichloro-4-pyridyl)ethoxy]-1H-indazol-3-yl]-2-pyridyl]-1-methylimino-1,4-thiazinane 1-oxide]
- IC50 [1]: 169 nM
- IC50 [2]: 8.4 nM
- IC50 [3]: 12 nM

Structure (SMILES): Cc1ncc(Cl)c([C@@H](C)Oc2ccc3[nH]nc(-c4ccc(N=S(C)(C)=O)nc4)c3c2)c1Cl [Example 30, [5-[5-[(1R)-1-(3,5-dichloro-2-methyl-4-pyridyl)ethoxy]-1H-indazol-3-yl]-2-pyridyl]imino-dimethyl-oxo-λ^6-sulfane]
- IC50 [2]: 38 nM
- IC50 [3]: 47 nM

Structure (SMILES): C[C@@H](Oc1ccc2[nH]nc(-c3ccc(S(C)(=N)=O)nc3)c2c1)c1c(Cl)cncc1Cl (stereo partly drawn) [Example 28, [5-[5-[(1R)-1-(3,5-dichloro-4-pyridyl)ethoxy]-1H-indazol-3-yl]-2-pyridyl]-imino-methyl-oxo-λ^6-sulfane]
- IC50 [2]: 28 nM
- IC50 [3]: 44 nM

Structure (SMILES): CC(Oc1ccc2[nH]nc(-c3cccc(S(C)(=N)=O)c3)c2c1)c1c(Cl)cncc1Cl (stereo not shown) [Example 2, (3-(5-(1-(3,5-Dichloropyridin-4-yl)ethoxy)-1H-indazol-3-yl)phenyl)(imino) (methyl)-λ^6-6-sulfanone]
- Kd (FGFR2 [5]): 400 nM
- Kd (FGFR3): 120 nM
- Kd (FGFR1): 1200 nM

Structure (SMILES): C[C@@H](Oc1ccc2[nH]nc(-c3ccc(N=S4(=O)CCCC4)nc3)c2c1)c1c(Cl)cncc1Cl [Example 32, 1-[[5-[5-[(1R)-1-(3,5-Dichloro-4-pyridyl)ethoxy]-1H-indazol-3-yl]-2-pyridyl]imino]thiolane 1-oxide]
- Kd (FGFR2 [4]): 15 nM
- Kd (FGFR3): 1.9 nM
- Kd (FGFR1): 14 nM

Structure (SMILES): CC(Oc1ccc2[nH]nc(C(=O)Nc3ccc(S(C)(=N)=O)nc3)c2c1)c1c(Cl)cncc1Cl (stereo not shown) [Example 6, 5-(1-(3,5-Dichloropyridin-4-yl)ethoxy)-N-(6-(S-methylsulfonimidoyl)pyridine-3-yl)-1H-indazole-3-carboxamide]
- Kd (FGFR2 [5]): 120 nM
- Kd (FGFR3): 47 nM
- Kd (FGFR1): 260 nM

Structure (SMILES): C[C@@H](Oc1ccc2[nH]nc(-c3ccc(N=S(C)(C)=O)nc3)c2c1)c1c(Cl)cncc1Cl [Example 21, (R)-((5-(5-(1-(3,5-Dichloropyridin-4-yl)ethoxy)-1H-indazol-3-yl)pyridin-2-yl)imino)dimethyl-λ^6-sulfanone]
- IC50 [1]: 103 nM
- IC50 [2]: 11 nM
- IC50 [3]: 19 nM

Structure (SMILES): C[C@@H](Oc1ccc2[nH]nc(-c3ccc(N4CCS(=N)(=O)CC4)nc3)c2c1)c1c(Cl)cncc1Cl [Example 12, (R)-4-(5-(5-(1-(3,5-Dichloropyridin-4-yl)ethoxy)-1H-indazol-3-yl)pyridin-2-yl)-1-imino-1λ^6-thiomorpholine 1-oxide]
- IC50 [1]: 45 nM
- IC50 [2]: 4.3 nM
- IC50 [3]: 5.9 nM

Structure (SMILES): C[C@@H](Oc1ccc2[nH]nc(-c3ccc(N4CCS(=N)(=O)CC4)cc3)c2c1)c1c(Cl)cncc1Cl [Example 13, (R)-4-(4-(5-(1-(3,5-Dichloropyridin-4-yl)ethoxy)-1H-indazol-3-yl)phenyl)-1-imino-1λ^6-thiomorpholine 1-oxide]
- IC50 [2]: 16 nM

Structure (SMILES): C[C@@H](Oc1ccc2[nH]nc(/C=C/c3ccc(N=S(C)(C)=O)nc3)c2c1)c1c(Cl)cncc1Cl [Example 3]
- IC50 [1]: 0.4 nM
- IC50 [2]: 20 nM

Structure (SMILES): C[C@@H](Oc1ccc2[nH]nc(NC(=O)c3ccc(N=S(C)(C)=O)nc3)c2c1)c1c(Cl)cncc1Cl [Example 19, (R)—N-(5-(1-(3,5-Dichloropyridin-4-yl)ethoxy)-1H-indazol-3-yl)-6-((dimethyl(oxo)-λ^6-sulfaneylidene)amino)nicotinamide]
- IC50 [2]: 39 nM

Structure (SMILES): C[C@@H](Oc1ccc2[nH]nc(-c3cnc(N=S(C)(C)=O)nc3)c2c1)c1c(Cl)cncc1Cl [Example 26, [5-[5-[(1R)-1-(3,5-dichloro-4-pyridyl)ethoxy]-1H-indazol-3-yl]pyrimidin-2-yl]imino-dimethyl-oxo-λ^6-sulfane]
- IC50 [6]: 18 nM
- IC50 [1]: 123 nM
- IC50 [2]: 22 nM
- IC50 [3]: 29 nM

Structure (SMILES): C[C@H](Oc1ccc2[nH]nc(-c3ccc(N4CCS(=N)(=O)CC4)cc3)c2c1)c1c(Cl)cncc1Cl [Example 14, (S)-4-(4-(5-(1-(3,5-Dichloropyridin-4-yl)ethoxy)-1H-indazol-3-yl)phenyl)-1-imino-1λ^6-thiomorpholine 1-oxide]
- IC50 [2]: 75 nM
